With `N#Cc1cc(C#N)cc(Sc2cc(CC(=O)Nc3ccc(S(N)(=O)=O)cc3)ccc2Cl)c1` [Compound I-242, 2-[4-Chloro-3-(3,5-dicyano-phenylsulfanyl)-phenyl]-N-(4-sulfamoyl-phenyl)-acetamide] the melting point was 247.9 to 250.9 °C.

In the case of `NS(=O)(=O)c1ccc(NC(=O)Cc2ccc(Cl)c(Sc3cc(Cl)ccc3Br)c2)cc1` [Compound I-243, 2-[3-(2-Bromo-5-chloro-phenylsulfanyl)-4-chloro-phenyl]-N-(4-sulfamoyl-phenyl)-acetamide], the melting point is reported as 220 to 222.3 °C.

`O=C(Cc1ccc(Cl)c(Sc2cc(Cl)ccc2Br)c1)Nc1ccccc1Cl` [Compound I-244, 2-[3-(2-Bromo-5-chloro-phenylsulfanyl)-4-chloro-phenyl]-N-(2-chloro-phenyl)-acetamide] gave a melting point of 172.2 to 172.8 °C.

Compound `O=C(Cc1ccc(Cl)c(C(=O)c2cc(Cl)cc(Cl)c2)c1)Nc1ccccc1Cl` [Compound I-247, 2-[4-Chloro-3-(3,5-dichloro-benzoyl)-phenyl]-N-(2-chloro-phenyl)-acetamide] has a melting point of 197.2 to 198.1 °C.

Compound `O=C(Cc1ccc(Cl)c(C(=O)c2cc(Cl)ccc2Cl)c1)Nc1ccccc1Cl` [Compound I-248, 2-[4-Chloro-3-(2,5-dichloro-benzoyl)-phenyl]-N-(2-chloro-phenyl)-acetamide] has a melting point of 121 to 123.5 °C.

`Cc1cc(S(N)(=O)=O)ccc1NC(=O)Cc1ccc(Cl)c(C(=O)c2cc(Cl)ccc2Cl)c1` [Compound I-249, 2-[4-Chloro-3-(2,5-dichloro-benzoyl)-phenyl]-N-(2-methyl-4-sulfamoyl-phenyl)-acetamide] gave a melting point of 214.9 to 218.8 °C.

In the case of `NS(=O)(=O)c1ccc(NC(=O)Cc2ccc(Cl)c(C(=O)c3cc(Cl)ccc3Cl)c2)cc1` [Compound I-250, 2-[4-Chloro-3-(2,5-dichloro-benzoyl)-phenyl]-N-(4-sulfamoyl-phenyl)-acetamide], the melting point is reported as 213.9 to 216.1 °C.

In the case of `O=C(Cc1ccc(Cl)c(C(=O)c2cc(Cl)ccc2Cl)c1)Nc1ccccc1` [Compound I-251, 2-[4-Chloro-3-(2,5-dichloro-benzoyl)-phenyl]-N-phenyl-acetamide], the melting point is reported as 167.1 to 168.5 °C.

`Cc1cc(S(N)(=O)=O)ccc1NC(=O)Cc1ccc(Cl)c(C(=O)c2cc(Cl)cc(Cl)c2)c1` [Compound I-252, 2-[4-Chloro-3-(3,5-dichloro-benzoyl)-phenyl]-N-(2-methyl-4-sulfamoyl-phenyl)-acetamide] gave a melting point of 263 to 264.4 °C.

In the case of `NS(=O)(=O)c1ccc(NC(=O)Cc2ccc(Cl)c(C(=O)c3cc(Cl)ccc3Cl)c2)c(Cl)c1` [Compound I-253, 2-[4-Chloro-3-(2,5-dichloro-benzoyl)-phenyl]-N-(2-chloro-4-sulfamoyl-phenyl)-acetamide], the melting point is reported as 197 to 199.6 °C.

`Cc1cc(CC(=O)Nc2ccc(S(N)(=O)=O)cc2)cc(C(=O)c2ccc(Cl)cc2)c1` [Compound I-254, 2-[3-(4-Chloro-benzoyl)-5-methyl-phenyl]-N-(4-sulfamoyl-phenyl)-acetamide] showed a melting point of 260.9 to 263.3 °C.

Work on `Cc1cc(CC(=O)Nc2ccc(S(N)(=O)=O)cc2C)cc(C(=O)c2ccccc2Cl)c1` [Compound I-256, 2-[3-(2-Chloro-benzoyl)-5-methyl-phenyl]-N-(2-methyl-4-sulfamoyl-phenyl)-acetamide] yielded a melting point of 207.7 to 209.3 °C.

In the case of `Cc1cc(CC(=O)Nc2ccccc2Cl)cc(C(=O)c2ccc(Cl)cc2)c1` [Compound I-258, 2-[3-(4-Chloro-benzoyl)-5-methyl-phenyl]-N-(2-chloro-phenyl)-acetamide], the melting point is reported as 134.7 to 135.5 °C.

`Cc1cc(CC(=O)Nc2ccccc2Cl)cc(C(=O)c2ccccc2Cl)c1` [Compound I-259, 2-[3-(2-Chloro-benzoyl)-5-methyl-phenyl]-N-(2-chloro-phenyl)-acetamide] gave a melting point of 125.1 to 127 °C.

`Cc1cc(CC(=O)Nc2ccc(S(N)(=O)=O)cc2C)cc(C(=O)c2cccc(Cl)c2)c1` [Compound I-260, 2-[3-(3-Chloro-benzoyl)-5-methyl-phenyl]-N-(2-methyl-4-sulfamoyl-phenyl)-acetamide] gave a melting point of 210.3 to 211.6 °C.

With `Cc1cc(CC(=O)Nc2ccc(S(N)(=O)=O)cc2)cc(C(=O)c2cccc(Cl)c2)c1` [Compound I-261, 2-[3-(3-Chloro-benzoyl)-5-methyl-phenyl]-N-(4-sulfamoyl-phenyl)-acetamide] the melting point was 211 to 213.1 °C.

For `Cc1cc(CC(=O)Nc2ccccc2Cl)cc(C(=O)c2cccc(Cl)c2)c1` [Compound I-262, 2-[3-(3-Chloro-benzoyl)-5-methyl-phenyl]-N-(2-chloro-phenyl)-acetamide], the melting point was 113 to 113.8 °C.

`Cc1cc(CC(=O)Nc2ccc(S(N)(=O)=O)cc2)cc(C(=O)c2ccccc2Cl)c1` [Compound I-263, 2-[3-(2-Chloro-benzoyl)-5-methyl-phenyl]-N-(4-sulfamoyl-phenyl)-acetamide] showed a melting point of 165 to 167 °C.

`COc1ccc(CC(=O)Nc2ccc(S(N)(=O)=O)cc2C)cc1C(=O)c1cc(Br)ccc1Cl` [Compound I-264, 2-[3-(5-Bromo-2-chloro-benzoyl)-4-methoxy-phenyl]-N-(2-methyl-4-sulfamoyl-phenyl)-acetamide] gave a melting point of 177 to 177.9 °C.

In the case of `Cc1cc(S(N)(=O)=O)ccc1NC(=O)Cc1ccc(C)c(C(=O)c2cc(C#N)ccc2C)c1` [Compound I-265, 2-[3-(5-Cyano-2-methyl-benzoyl)-4-methyl-phenyl]-N-(2-methyl-4-sulfamoyl-phenyl)-acetamide], the melting point is reported as 224.3 to 228.1 °C.

With `Cc1ccc(C#N)cc1C(=O)c1cc(CC(=O)Nc2ccc(S(N)(=O)=O)cc2)ccc1C` [Compound I-266, 2-[3-(5-Cyano-2-methyl-benzoyl)-4-methyl-phenyl]-N-(4-sulfamoyl-phenyl)-acetamide] the melting point was 229.6 to 231.1 °C.

`Cc1ccc(C#N)cc1C(=O)c1cc(CC(=O)Nc2ccccc2Cl)ccc1C` [Compound I-267, N-(2-Chloro-phenyl)-2-[3-(5-cyano-2-methyl-benzoyl)-4-methyl-phenyl]-acetamide] showed a melting point of 129.4 to 131.6 °C.

`Cc1cc(CC(=O)Nc2ccc(S(N)(=O)=O)cc2)cc(C(=O)c2cc(Cl)cc(Cl)c2)c1` [Compound I-269, 2-[3-(3,5-Dichloro-benzoyl)-5-methyl-phenyl]-N-(4-sulfamoyl-phenyl)-acetamide] gave a melting point of 226 to 227.9 °C.
